# Literature values in US20070259016A1, “Method of treating crops with submicron chlorothalonil” (priority 2006, published 2007).
# What was measured:
# [1] = acid and neutral aqueous preparations
# [2] = at 170 C.
smiles,measurement,setting,value
"N#Cc1c(Cl)c(Cl)c(Cl)c(C#N)c1Cl [chlorothalonil, 2,4,5,6-tetrachloro-1,3-dicyanobenzene]",stability in aqueous preparations,[1],relatively stable
same,volatility,[2],9.2 mmHg
same,solubility in acetone and xylene,acetone and xylene,slightly soluble
same,solubility in water,water,0.6-1.2 ppm
